Biological target: T1, Human DGAT1 (Homo sapiens, UniProt O75907)
T1 construct: made in house; host or cells: Pichia pastoris (printed 'Pichia pastris'), vector pPICZA, membrane fraction
T1 sequence (O75907 1-488): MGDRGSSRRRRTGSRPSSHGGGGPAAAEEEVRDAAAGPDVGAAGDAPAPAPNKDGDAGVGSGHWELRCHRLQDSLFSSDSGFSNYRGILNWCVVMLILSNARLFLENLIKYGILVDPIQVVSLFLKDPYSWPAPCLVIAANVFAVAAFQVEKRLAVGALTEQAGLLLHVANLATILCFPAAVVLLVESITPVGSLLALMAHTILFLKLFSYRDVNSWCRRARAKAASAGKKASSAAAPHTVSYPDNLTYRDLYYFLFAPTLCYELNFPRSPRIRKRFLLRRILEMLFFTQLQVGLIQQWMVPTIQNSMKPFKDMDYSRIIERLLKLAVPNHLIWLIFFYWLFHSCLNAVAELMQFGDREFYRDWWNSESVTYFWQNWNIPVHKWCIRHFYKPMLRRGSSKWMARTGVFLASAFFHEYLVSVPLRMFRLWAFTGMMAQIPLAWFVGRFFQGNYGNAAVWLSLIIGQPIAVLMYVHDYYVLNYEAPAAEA
Experiment: DGAT1 Inhibitory Activity Test
Format: biochemical
Settings: DGAT1-expressed yeast membrane fraction as enzyme source; 40 μM Dioelin, 15 μM [14C]-oleoyl-CoA; room temperature for 30 minutes
Method: Human DGAT1 genes were amplified by PCR using primers described below from human cDNA library (Clontech).
The amplified human DGAT1 genes were introduced into a yeast expression vector pPICZA (Invitrogen). The resultant expression plasmid was introduced into an yeast (Pichia pastris) by electroporation to produce a recombinant yeast. The recombinant yeast was cultured in the presence of 0.5% methanol for 72 hours, and the cells were crushed using glass beads in 10 mM Tris pH 7.5, 250 mM sucrose and 1 mM EDTA, followed by adjusting the membrane fraction by centrifugation to use the adjusted membrane fraction as an enzyme source.
To the reaction liquid having the following composition: 100 mM Tris pH 7.5, 100 mM MgCl2, 100 mM sucrose, 40 μM Dioelin, 15 μM [^14C]-oleoyl-CoA, 0.25 μg of test substance, DGAT1-expressed yeast membrane fraction, was added, and the mixture having a volume of 100 μl was incubated at room temperature for 30 minutes. To the reaction liquid, 100 μl of 2-propanol/heptan/H2O (80/20/2) was added, the mixture was stirred well, followed by adding 200 of heptane and further stirring the mixture. After centrifugation, the heptane layer was collected, ethanol/0.1N NaOH/H2O (50:5:45) was added, the mixture was thus stirred, followed by recentrifuging the mixture and collecting the heptane layer. After exsiccation of the resultant heptane layer, 100 μl of Microscint 0 (PerkinElmer) was added, and the radioactivity was measured with a liquid scintillation counter. The inhibitory activity was calculated from the following formula:
Inhibition rate=100−(radioactivity in case of addition of test compound−background)/(radioactivity in case of addition of no test compound−background)×100
wherein the background means the radioactivity in case of addition of no membrane fraction.

Row | Compound | IC50
1 | CN1C(=O)[C@H](NC(=O)C(C)(C)NC(=O)N2CCCCC2)CN(c2ccc(OC(F)(F)F)cc2)c2ccc(F)cc21 [Example 52, N-[2-({(3R)-8-fluoro-1-methyl-2-oxo-5-[4-(trifluoromethoxy)phenyl]-2,3,4,5-tetrahydro-1H-1,5-benzodiazepin-3-yl}amino)-1,1-dimethyl-2-oxoethyl]piperidin-1-carboxyamide] | 91.1 nM
2 | CN1C(=O)[C@H](NC(=O)C(C)(C)NC(=O)NC(C)(C)C)CN(c2cc(Cl)cc(Cl)c2)c2ccc(F)cc21 [Example 47, N^2-[(tert-butylamino)carbonyl]-N-[(3R)-5-(3,5-dichlorophenyl)-8-fluoro-1-methyl-2-oxo-2,3,4,5-tetrahydro-1H-1,5-benzodiazepin-3-yl]-2-methylalanineamide] | 61.3 nM
3 | CN1C(=O)[C@H](NC(=O)C2(NC(=O)c3ccccc3)CC2)CN(c2ccc(OC(F)(F)F)cc2)c2ccc(F)cc21 [Example 12, N-{1-[({(3R)-8-fluoro-1-methyl-2-oxo-5-[4-(trifluoromethoxy)phenyl]-2,3,4,5-tetrahydro-1H-1,5-benzodiazepin-3-yl}amino)carbonyl]cyclopropyl}benzamide] | 192 nM
4 | CN1C(=O)[C@H](NC(=O)C(C)(C)NC(=O)c2ccc(F)cc2)CN(Cc2ccc(F)c(C(F)(F)F)c2)c2ccc(F)cc21 [Example 84, 4-fluoro-N-[2-({(3R)-8-fluoro-5-[4-fluoro-3-(trifluoromethyl)benzyl]-1-methyl-2-oxo-2,3,4,5-tetrahydro-1H-1,5-benzodiazepin-3-yl}amino)-1,1-dimethyl-2-oxoethyl]benzamide] | 140 nM
5 | CN1C(=O)[C@H](NC(=O)C(C)(C)NC(=O)c2ccc(F)cc2)CN(c2cc(Cl)cc(Cl)c2)c2cc(F)ccc21 [Example 59, N-(2-{[(3R)-5-(3,5-dichlorophenyl)-7-fluoro-1-methyl-2-oxo-2,3,4,5-tetrahydro-1H-1,5-benzodiazepin-3-yl]amino}-1,1-dimethyl-2-oxoethyl)-4-fluorobenzamide] | 40.2 nM
6 | CN1C(=O)[C@H](NC(=O)C2(NC(=O)OC(C)(C)C)CC2)CN(Cc2ccc(OC(F)(F)F)cc2)c2ccccc21 [Example 92, tert-butyl {1-[({(3R)-1-methyl-2-oxo-5-[4-(trifluoromethoxy)benzyl]-2,3,4,5-tetrahydro-1H-1,5-benzodiazepin-3-yl}amino)carbonyl]cyclopropyl}carbamate] | 20.8 nM
7 | N-(2-{[(3R)-5-(3,5-dichlorophenyl)-8-fluoro-1-methyl-2-oxo-2,3,4,5-tetrahydro-1H-1,5-benzodiazepin-3-yl]amino}-1,1-dimethyl-2-oxoethyl)-1,3-thiazol-2-carboxyamide [Example 45] | 29.2 nM
8 | N-[2-({(3R)-5-[3,5-bis(trifluoromethyl)phenyl]-8-fluoro-1-methyl-2-oxo-2,3,4,5-tetrahydro-1H-1,5-benzodiazepin-3-yl}amino)-1,1-dimethyl-2-oxoethyl]-5-fluoropyridine-2-carboxyamide [Example 19] | 24.1 nM
9 | Cc1cnc(C(=O)NC(C)(C)C(=O)N[C@@H]2CN(Cc3ccc(OC(F)(F)F)cc3)c3ccc(F)cc3N(C)C2=O)cn1 [Example 98, N-[2-({(3R)-8-fluoro-1-methyl-2-oxo-5-[4-(trifluoromethoxy)benzyl]-2,3,4,5-tetrahydro-1H-1,5-benzodiazepin-3-yl}amino)-1,1-dimethyl-2-oxoethyl]-5-methylpyrazin-2-carboxyamide] | 1340 nM
10 | CN1C(=O)[C@H](NC(=O)C(C)(C)NC(=O)c2ccc(F)cc2)CN(c2ccc(OC(F)(F)F)cc2)c2ccc(F)cc21 [Example 1, 4-fluoro-N-[2-({(3R)-8-fluoro-1-methyl-2-oxo-5-[4-(trifluoromethoxy)phenyl]-2,3,4,5-tetrahydro-1H-1,5-benzodiazepin-3-yl}amino)-1,1-dimethyl-2-oxoethyl]benzamide] | 166 nM
11 | CN1C(=O)[C@H](NC(=O)C(C)(C)NC(=O)C2(C(F)(F)F)CC2)CN(c2cc(C(F)(F)F)cc(C(F)(F)F)c2)c2ccc(F)cc21 [Example 27, N-{(3R)-5-[3,5-bis(trifluoromethyl)phenyl]-8-fluoro-1-methyl-2-oxo-2,3,4,5-tetrahydro-1H-1,5-benzodiazepin-3-yl}-2-methyl-N^2-{[1-(trifluoromethyl)cyclopropyl]carbonyl}alaninamide] | 16.3 nM
12 | CN1C(=O)[C@H](NC(=O)C(C)(C)NC(=O)c2ncco2)CN(Cc2ccc(OC(F)(F)F)cc2)c2ccc(F)cc21 [Example 100, N-[2-({(3R)-8-fluoro-1-methyl-2-oxo-5-[4-(trifluoromethoxy)benzyl]-2,3,4,5-tetrahydro-1H-1,5-benzodiazepin-3-yl}amino)-1,1-dimethyl-2-oxoethyl]-1,3-oxazol-2-carboxyamide] | 2230 nM
13 | CN1C(=O)[C@H](NC(=O)C2(NC(=O)c3ccccc3)CC2)CN(Cc2cc(C(F)(F)F)cc(C(F)(F)F)c2)c2ccccc21 [Example 64, N-{1-[({(3R)-5-[3,5-bis(trifluoromethyl)benzyl]-1-methyl-2-oxo-2,3,4,5-tetrahydro-1H-1,5-benzodiazepin-3-yl}amino)carbonyl]cyclopropyl}benzamide] | 47.3 nM
